In paper PMC6268855, “New Trifluoromethyl Triazolopyrimidines as Anti-Plasmodiumfalciparum Agents” (Molecules, 2012):

Tests used:
Format in all cases: cell-based
[1] = system: human hepatoma cell line (HepG2); conditions: MTT, 24 h incubation
Description: For in vitro cytotoxicity experiments, the cell monolayer was trypsinized, washed with culture medium, distributed in a flat-bottomed 96-well plate (5 × 10^3 cells/well), and finally incubated for 18 h at 37 °C for cell adherence.
For cytotoxicity testing, we used the (3-(4,5-dimethylthiazol-2-yl)-2,5-diphenyltetrazolium bromide (MTT) assay, performed as described in the literature. The HepG2 cell line was incubated with 20 µL of the compounds in different concentrations (200–25 µg/mL) for 24 h in an atmosphere of 5% CO2 at 37 °C.
For the MTT assay, which evaluates mitochondrial viability, 20 µL of MTT solution (5 mg/mL) was added, and the plates were incubated for an additional 3 h. After incubation, the supernatant was carefully removed from the wells, followed by addition of 100 µL DMSO with thorough mixing. Optical densities at 570 and 630 nm (background) were determined by an ELISA reader.
Cell viability was expressed as the percentage of control absorbance obtained in untreated cells after subtracting the absorbance from appropriate background. Lastly, the minimum lethal dose for 50% of the cells (MLD50) was determined as previously described in the literature. The ratio between MLD50 and drug activity (IC50) in vitro was used to determine the selectivity index (SI).

[2] = system: Plasmodium falciparum chloroquine-resistant W2 clone; test: [3H]-hypoxanthine incorporation assay on P. falciparum-infected erythrocytes; conditions: read-out: IC50 Plasmodium Falciparum Hypoxanthine
Description: (§1) Briefly, the parasites were kept as described at 37 °C in human erythrocytes (A^+) in complete medium (RPMI 1640 supplemented with 10% human sera blood group A^+, 2% glutamine, and 7.5% NaHCO3) either in Petri dishes in a candle jar or in 25-cm culture flasks in an environment containing a gas mixture atmosphere (3% O2, 5% CO2 and 91% N2). Before testing, the ring-stage parasites were synchronized by sorbitol; the suspension was adjusted for parasitemia and hematocrit as described below for each test used.
(§2) The effects of compounds against the W2 P. falciparum blood cultures were evaluated through incorporation of ^3H hypoxanthine (Perkin Elmer, Waltham, MA, USA) by the parasites. Alternatively, compound effects were also examined using monoclonal antibodies to a commercially available parasite histidine and alanine-rich protein (HRP2) (MPFM ICLLAB-55A®, MPFG55P ICLLAB®, Immunology Consultants Laboratory Inc. (ICL), Portland, OR, USA), as described previously. The [3H]-hypoxanthine assay was performed with 1% of parasitemia and 1% of hematocrit, and the level of isotope incorporation was read in a beta-counter (Perkin Elmer). The anti-HRP2 test was performed with 0.05% parasitemia and 1.5% hematocrit, and the quantification of protein was determined using a specific read at 450 nm in a spectrophotometer (SpectraMax340PC^384, Molecular Devices, Sunnyvale, CA, USA). Drug activities were expressed by the half-maximal inhibitory dose (IC50) compared to the drug-free controls and estimated using the curve-fitting software Origin 8.0 (OriginLab Corporation, Northampton, MA, USA).

[3] = system: Plasmodium falciparum chloroquine-resistant W2 clone; test: anti-HRP2 test on P. falciparum-infected erythrocytes; conditions: for IC50: Plasmodium falciparum, read-out: IC50 Plasmodium Falciparum Anti-HRP2; for activity class against P. falciparum: class by IC50
Description: as §1, §2

[4] = Erythrocyte, W2 clone, 0.05% parasitemia, 1.5% hematocrit
[5] = Erythrocyte, W2 clone, 1% parasitemia, 1% hematocrit

MDL50 HepG2 [1] [µM] | IC50 [3, 4] [µM] | IC50 [2, 5] [µM] | SMILES | IC50 ([2]; W2, Erythrocyte) [µM] | IC50 ([3]; W2, Erythrocyte) [µM] | activity class against P. falciparum ([3]; W2 clone)
326 | 2.2 |  | Cc1cc(Nc2cccc3ccccc23)n2nc(C(F)(F)F)nc2n1 [Compound 4, 5-Methyl-7-(naphthalen-1-ylamine)-2-(trifluoromethyl)[1,2,4]triazolo[1,5-a]pyrimidine] |  |  | 
425 | 0.023 ± 0.002 |  | Cc1cc(Nc2ccc3ccccc3c2)n2nc(C(F)(F)F)nc2n1 [Compound 5, 5-Methyl-7-(naphthalen-2-ylamine)-2-(trifluoromethyl)[1,2,4]triazolo[1,5-a]pyrimidine] |  |  | 
>682 | 3 ± 2 | 10.2 ± 5 | Cc1cc(Nc2ccccc2)n2nc(C(F)(F)F)nc2n1 [Compound 6, 5-Methyl-7-phenylamine-2-(trifluoromethyl)[1,2,4]triazolo[1,5-a]pyrimidine] |  |  | 
373 | 1.83 ± 1.1 | 1.22 | Cc1cc(Nc2cccc(Cl)c2)n2nc(C(F)(F)F)nc2n1 [Compound 7, 7-(3-Chlorophenylamine)-5-methyl-2-(trifluoromethyl)[1,2,4]triazolo[1,5-a]pyrimidine] |  |  | 
>552 | 0.55 ± 0.66 | 0.11 ± 0.05 | Cc1cc(Nc2ccc(Cl)c(Cl)c2)n2nc(C(F)(F)F)nc2n1 [Compound 8, 7-(3,4-Dichlorophenylamine)-5-methyl-2-(trifluoromethyl)[1,2,4]triazolo[1,5-a]pyrimidine] |  |  | 
320 | 2.7 ± 2.21 | 3.32 ± 1.1 | Cc1cc(Nc2ccc(Cl)cc2Cl)n2nc(C(F)(F)F)nc2n1 [Compound 9, 7-(2,4-Dichlorophenylamine)-5-methyl-2-(trifluoromethyl)[1,2,4]triazolo[1,5-a]pyrimidine] |  |  | 
337 | > 69.9 | > 149 | Cc1cc(Nc2c(F)cccc2F)n2nc(C(F)(F)F)nc2n1 [Compound 10, 7-(2,6-Difluorophenylamine)-5-methyl-2-(trifluoromethyl)[1,2,4]triazolo[1,5-a]pyrimidine] |  |  | Inactive
>619 | 0.4 ± 0.09 | 1.5 ± 1.2 | COc1ccc(Nc2cc(C)nc3nc(C(F)(F)F)nn23)cc1 [Compound 11, 7-(4-Methoxyphenylamine)-5-methyl-2-(trifluoromethyl)[1,2,4]triazolo[1,5-a]pyrimidine] |  |  | 
498 | 2.5 ± 0.05 | 0.36 ± 0.1 | COc1cc(Nc2cc(C)nc3nc(C(F)(F)F)nn23)cc(OC)c1 [Compound 12, 7-(3,5-Dimethoxyphenylamine)-5-methyl-2-(trifluoromethyl)[1,2,4]triazolo[1,5-a]pyrimidine] |  |  | 
320 | 1.47 ± 0.11 | 0.83 ± 0.58 | Cc1cc(Nc2cc(Cl)cc(Cl)c2)n2nc(C(F)(F)F)nc2n1 [Compound 13, 7-(3,5-Dichlorophenylamine)-5-methyl-2-(trifluoromethyl)[1,2,4]triazolo[1,5-a]pyrimidine] |  |  | 
515 | 3.84 ± 0.4 | 15.1 ± 10 | COc1cc(Nc2cc(C)nc3nc(C)nn23)cc(OC)c1 [Compound 14, 7-(3,5-Dimethoxyphenylamine)-2,5-dimethyl[1,2,4]triazolo[1,5-a]pyrimidine] |  |  | 
415 | > 162 | 149 | Cc1cc(Nc2cc(Cl)cc(Cl)c2)n2nc(C)nc2n1 [Compound 15, 7-(3,5-Dichlorophenylamine)-2,5-dimethyl[1,2,4]triazolo[1,5-a]pyrimidine] |  |  | Inactive
446 | 0.3 | 0.4 ± 0.06 | Cc1cc(Nc2ccc(C(F)(F)F)cc2)n2nc(C)nc2n1 [Compound 16, 2,5-Dimethyl-7-(4-(trifluoromethyl)phenylamine)-[1,2,4]triazolo[1,5-a]pyrimidine] |  |  | 
269 | 12.3 | 23.4 | FC(F)(F)c1cc(Nc2cc(Cl)cc(Cl)c2)n2nc(C(F)(F)F)nc2n1 [Compound 17, 7-(3,5-Dichlorophenylamine)-2,5-bis(trifluoromethyl)[1,2,4]triazolo[1,5-a]pyrimidine] |  |  | 
515 | 8.69 ± 0.46 | 10 | Cc1cc(NC2CCCCC2)n2nc(C(F)(F)F)nc2n1 [Compound 18, 7-Cyclohexylamine-5-methyl-2-(trifluoromethyl)[1,2,4]triazolo[1,5-a]pyrimidine] |  |  | 
>697 | > 174 | > 174 | Cc1cc(N2CCOCC2)n2nc(C(F)(F)F)nc2n1 [Compound 19] |  |  | Inactive
>666 | 39 ± 17 | 57 ± 13 | Cc1cc(N2CCN(C)CC2)n2nc(C(F)(F)F)nc2n1 [Compound 20, 5-Methyl-7-(4-methylpiperazin-1-yl)-2-(trifluoromethyl)[1,2,4]triazolo[1,5-a]pyrimidine] |  |  | Inactive
>738 | > 184 | > 184 | Cc1cc(N2CCCC2)n2nc(C(F)(F)F)nc2n1 [Compound 21, 5-Methyl-7-(pyrrolidin-1-yl)-2-(trifluoromethyl)[1,2,4]triazolo[1,5-a]pyrimidine] |  |  | Inactive
394 | > 156 | > 170 | Cc1cc(Nc2ccccn2)n2nc(C(F)(F)F)nc2n1 [Compound 22, 5-Methyl-7-(pyridin-2-ylamine)-2-(trifluoromethyl)[1,2,4]triazolo[1,5-a]pyrimidine] |  |  | Inactive
<71 | 36.9 ± 11.4 | 31.2 ± 17 | Cc1cc(Nc2nc(C(F)(F)F)n[nH]2)n2nc(C(F)(F)F)nc2n1 [Compound 23, 5-Methyl-2-(trifluoromethyl)-7-(5-(trifluoromethyl)-3-amine-4H-1,2,4-triazolyl)[1,2,4]triazolo[1,5-a]pyrimidine] |  |  | Inactive
>746 | 2.1 |  | Cc1cc(-n2cccn2)n2nc(C(F)(F)F)nc2n1 [Compound 24, 5-Methyl-7-(1H-pyrazol-1-yl)-2-(trifluoromethyl)[1,2,4]triazolo[1,5-a]pyrimidine] |  |  | 
<93 | 21 ± 2 | 15 ± 0.7 | Cc1cc(-n2ccnc2)n2nc(C(F)(F)F)nc2n1 [Compound 25, 7-(1H-Imidazol-1-yl)-5-methyl-2-(trifluoromethyl)[1,2,4]triazolo[1,5-a]pyrimidine] |  |  | 
<93 | 29.7 | 33.5 ± 14.9 | Cc1cc(-n2cncn2)n2nc(C(F)(F)F)nc2n1 [Compound 26, 5-Methyl-7-(1H-1,2,4-triazol-1-yl)-2-(trifluoromethyl)[1,2,4]triazolo[1,5-a]pyrimidine] |  |  | Inactive
>749 | 97.4 ± 22.5 | 78.7 ± 7.49 | Cc1cc(-n2cccc2)n2nc(C(F)(F)F)nc2n1 [Compound 27, 5-Methyl-7-(1H-pyrrol-1-yl)-2-(trifluoromethyl)[1,2,4]triazolo[1,5-a]pyrimidine] |  |  | Inactive
>689 | > 172 | > 172 | CCN(CC)CCCC(C)Nc1cc(C)nc2ncnn12 (stereo not shown) [Compound 28, 5-Methyl-7-N'-(N,N-diethylpentane-1,4-diamine)[1,2,4]triazolo[1,5-a]pyrimidine] |  |  | Inactive

SMILES | MDL50 HepG2 [1] [µM] | IC50 [3, 4] [µM] | IC50 [2, 5] [µM] | IC50 ([2]; W2, Erythrocyte) [µM] | IC50 ([3]; W2, Erythrocyte) [µM] | activity class against P. falciparum ([3]; W2 clone)
CCN(CC)CCCC(C)Nc1ccnc2cc(Cl)ccc12 (stereo not shown) [Chloroquine, reference compound] | 490 |  |  | 0.23 | 0.22 | 
